Experimental data taken from patent publication US20080045514A1 (Cytovia, Inc., priority 2006, published 2008).
Structures can show the parent of a compound that is named as a salt.

What was measured:
Format in all cases: cell-based
[1] = system: human colon carcinoma cell line HCT116; assay: Caspase cascade activation (EC50), HCT116; conditions: Homo sapiens, HCT-116; HCT116 cells; caspase cascade activation; read-out: caspase potency (EC50) HCT116
Description: (§1) Human breast cancer cell lines T-47D, human hepatocellular carcinoma cell line SNU398, human colon carcinoma cell line HCT116, human cancer cell line H1299, human Burkitt's lymphoma cell line Namalwa, human lymphoma cell line Raji, and human B cell lymphoblastoid cell line Ramos were grown according to media component mixtures designated by American Type Culture Collection+10% FCS (Invitrogen Corporation), in a 5% CO2-95% humidity incubator at 37° C. T-47D and H1299 cells were maintained at a cell density between 50 and 80% confluency at a cell density of 0.1 to 0.6×10^6 cells/mL. Cells were harvested at 600×g and resuspended at 0.65×10^6 cells/mL into appropriate media+10% FCS. An aliquot of 22.5 μL of cells was added to a well of a 384-well microtiter plate containing 2.5 μL of a 10% DMSO in RPMI-1640 media solution containing 0.16 to 100 μM of 3-(2-chlorophenyl)-6-(3,4-methylenedioxyphenyl)-7H-[1,2,4]triazolo[3,4-b][1,3,4]thiadiazine or other test compound (0.016 to 10 μM final). An aliquot of 22.5 μL of cells was added to a well of a 384-well microtiter plate containing 2.5 μL of a 10% DMSO in RPMI-1640 media solution without test compound as the control sample. The samples were mixed by agitation and then incubated at 37° C. for 48 h in a 5% CO2-95% humidity incubator. After incubation, the samples were removed from the incubator and 25 μL of a solution containing 14 μM of N—(Ac-DEVD)-N′-ethoxycarbonyl-R110 (SEQ ID No.:1) fluorogenic substrate (Cytovia, Inc.; WO99/18856), 20% sucrose (Sigma), 20 mM DTT (Sigma), 200 mM NaCl (Sigma), 40 mM Na PIPES buffer pH 7.2 (Sigma), and 500 μg/mL lysolecithin (Calbiochem) was added. The samples were mixed by agitation and incubated at room temperature. Using a fluorescent plate reader (Model SPECTRAfluor Plus, Tecan), an initial reading (T=0) was made approximately 1-2 min after addition of the substrate solution, employing excitation at 485 nm and emission at 530 nm, to determine the background fluorescence of the control sample. After the 3 h incubation, the samples were read for fluorescence as above (T=3 h). Calculation: The Relative Fluorescence Unit values (RFU) were used to calculate the sample readings as follows: RFU(T=3H)−Control RFU(T=0)=Net RFU(T=3h) The activity of caspase cascade activation was determined by the ratio of the net RFU value for 3-(2-chlorophenyl)-6-(3,4-methylenedioxyphenyl)-7H-[1,2,4]triazolo[3,4-b][1,3,4]thiadiazine (Example P) or other test compound to that of control samples. The EC50 (nM) was determined by a sigmoidal dose-response calculation (Prism 3.0, GraphPad Software Inc.).

[2] = system: human breast cancer cell line T-47D; assay: Caspase cascade activation (EC50), T-47D; conditions: Homo sapiens; T47D cells; caspase cascade activation; read-out: caspase potency (EC50) T47D
Description: as §1

[3] = system: human B cell lymphoblastoid cell line Ramos; assay: Caspase cascade activation (EC50), Ramos; conditions: Homo sapiens, RAMOS cells, read-out: caspase potency (EC50) RAMOS
Description: as §1

[4] = system: human lymphoma cell line Raji; assay: Caspase cascade activation (EC50), Raji; conditions: Homo sapiens, RAJI cells, read-out: caspase potency (EC50) RAJI
Description: as §1

[5] = system: human Burkitt's lymphoma cell line Namalwa; assay: Caspase cascade activation (EC50), Namalwa; conditions: Homo sapiens, Burkitts lymphoma cell; Namalwa cells; caspase cascade activation; read-out: caspase potency (EC50) Namalwa
Description: as §1

[6] = system: human hepatocellular carcinoma cell line SNU398; assay: Caspase cascade activation (EC50), SNU398; conditions: Homo sapiens, SNU-398; SNU398 cells; caspase cascade activation; read-out: caspase potency (EC50) SNU398
Description: as §1

Structure (SMILES) | EC50 [1] [µM] | EC50 [2] [µM] | EC50 [3] [µM] | EC50 [4] [µM] | EC50 [5] [µM] | EC50 [6] [µM]
COc1cc(-c2nnc3n2N=C(c2ccc4ccccc4c2)CS3)cc(OC)c1OC [Example Y1, 3-(3,4,5-Trimethoxyphenyl)-6-(2-naphthyl)-7H-[1,2,4]triazolo[3,4-b][1,3,4]thiadiazine] | 0.119 | 0.556 | 0.099 | 0.127 | 0.139 | 0.081
CCOc1ccc(C2=Nn3c(nnc3-c3cccc(C)c3)SC2)cc1 [Example O2, 3-(3-Methylphenyl)-6-(4-ethoxyphenyl)-7H-[1,2,4]triazolo[3,4-b][1,3,4]thiadiazine] | 0.665 | 1.42 | 0.597 | 0.641 | 0.635 | 0.433
CCc1nnc2n1N=C(c1ccc(OC)cc1)CS2 [Example J2, 3-Ethyl-6-(4-methoxyphenyl)-7H-[1,2,4]triazolo[3,4-b][1,3,4]thiadiazine] | > 10 | 5.63 | 5.42 | 5.56 | > 10 | 5.08
Cc1ccc(C2=Nn3c(nnc3-c3ccccc3Cl)SC2)cc1 [Example 11, 3-(2-Chlorophenyl)-6-(4-methylphenyl)-7H-[1,2,4]triazolo[3,4-b][1,3,4]thiadiazine hydrochloride] | – | – | 0.072 | 0.157 | 0.071 | –
COc1ccccc1-c1nnc2n1N=C(c1ccc(OCCN(C)C)cc1)CS2 [Example 9, 3-(2-Methoxyphenyl)-6-(4-(2-dimethylaminoethoxy)phenyl)-7H-[1,2,4]triazolo[3,4-b][1,3,4]thiadiazine] | – | – | 2.65 | 3.37 | 2.56 | –
COc1ccc(-c2nnc3n2N=C(c2ccc([N+](=O)[O-])cc2)CS3)cc1OC [Example 28, 3-(3,4-Dimethoxyphenyl)-6-(4-nitrophenyl)-7H-[1,2,4]triazolo[3,4-b][1,3,4]thiadiazine] | > 10 | > 10 | > 10 | > 10 | > 10 | > 10
COc1ccc(-c2nnc3n2N=C(c2ccc4[nH]c(=O)oc4c2)CS3)c(OC)c1 [Example 33, 6-(2,3-Dihydro-2-oxobenzo[d]oxazol-6-yl)-3-(2,4-dimethoxyphenyl)-7H-[1,2,4]triazolo[3,4-b][1,3,4]thiadiazine] | – | – | 2.68 | 2.41 | 2.73 | –
c1ccc(-c2nnc3n2N=C(c2ccc4c(c2)OCO4)CS3)cc1 [Example P1, 3-Phenyl-6-(3,4-methylenedioxyphenyl)-7H-[1,2,4]triazolo[3,4-b][1,3,4]thiadiazine] | > 10 | 0.669 | 0.628 | > 1 | – | 2.64
COc1ccccc1-c1nnc2n1N=C(c1ccc([N+](=O)[O-])c(OC)c1)CS2 [Example 45, 6-(3-Methoxy-4-nitrophenyl)-3-(2-methoxyphenyl)-7H-[1,2,4]triazolo[3,4-b][1,3,4]thiadiazine] | > 10 | > 10 | – | – | > 10 | > 10
COc1ccc(-c2nnc3n2N=C(c2ccc(N)cc2)CS3)cc1OC [Example 29, 6-(4-Aminophenyl)-3-(3,4-dimethoxyphenyl)-7H-[1,2,4]triazolo[3,4-b][1,3,4]thiadiazine] | 5.28 | 4.72 | 0.545 | – | – | 2.54
COc1ccccc1-c1nnc2n1N=C(c1ccc(C)cc1C)CS2 [Example 39, 3-(2-Methoxyphenyl)-6-(2,4-dimethylphenyl)-7H-[1,2,4]triazolo[3,4-b][1,3,4]thiadiazine] | 2.58 | 2.7 | – | – | 1.28 | 0.943
Cc1ccc(C2=Nn3c(nnc3-c3ccccc3[S+](C)[O-])SC2)cc1 (stereo not drawn) [Example 72, 3-(2-Methylsulfinylphenyl)-6-(4-methylphenyl)-7H-[1,2,4]triazolo[3,4-b][1,3,4]thiadiazine] | > 10 | > 10 | – | – | > 10 | > 10
